In assay [1] the test system is K562. Nature of the assay: Antiproliferative activity against human K562 cells assessed as reduction in cell viability incubated for 48 hrs by CCK-8 assay. The assay is classed as functional, cell-based. The settings on record: K562, 48 h.
A further assay has as its system DU-145. The experiment in a line: Cytotoxicity against human DU-145 cells assessed as reduction in cell viability incubated for 48 hrs by MTS assay. It is filed as functional, cell-based. The note with it: DU-145, time 48 hrs.
The next assay deals with MIA PaCa-2. The experiment in a line: Cytotoxicity against human MIA PaCa-2 cells assessed as reduction in cell viability incubated for 48 hrs by MTS assay. It is filed as functional, cell-based. The settings on record: MIA PaCa-2, time 48 hrs.
The subject of the next assay is JIMT-1. The experiment in a line: Cytotoxicity against human JIMT-1 cells assessed as reduction in cell viability incubated for 48 hrs by MTS assay. It is filed as functional, cell-based. The note with it: JIMT-1, time 48 hrs. (In general: Tetrazolium assays rely on reduction of a dye to a coloured formazan, in cell work by metabolically active cells.)
Assay [2] deals with MCF7. Nature of the assay: Antiproliferative activity against human MCF7 cells assessed as inhibition of cell growth incubated for 48 hrs. The assay is classed as functional, cell-based. The note with it: MCF7, 48 h, pooled result: one value given for 9 cell lines, strains, targets or settings.
The next assay relates to BT-474. The experiment in a line: Cytotoxicity against human BT-474 cells assessed as reduction in cell viability incubated for 48 hrs by MTS assay. The note with it: BT-474, time 48 hrs. It is filed as functional, cell-based.
A further assay relates to NCI-H292. Nature of the assay: Cytotoxicity against human NCI-H292 cells assessed as reduction in cell viability incubated for 4 days by WST-1 assay. The assay is classed as functional, cell-based. The note with it: NCI-H292, 96 h.
A further assay concerns Jurkat. Nature of the assay: Inhibition of cell growth in human Jurkat cells at 25 ug/ml. The assay is classed as functional.
The next assay concerns NCI/ADR-RES. Nature of the assay: Growth inhibition of human multi-drug resistant MCF7/Adr cells incubated for 72 hrs by sulforhodamine B staining assay. It is filed as functional. A general note: In SRB staining, fixed cells bind dye roughly in proportion to their protein.
For assay [3], the system named is MCF7. The experiment in a line: Growth inhibition of human MCF7 cells incubated for 72 hrs by sulforhodamine B staining assay. The assay is classed as functional.
A further assay relates to L1210. The experiment in a line: Growth inhibition of mouse L1210 cells incubated for 72 hrs by sulforhodamine B staining assay. The assay is classed as functional.
Assay [4] is described as follows: Growth inhibition of mouse Lewis lung carcinoma cell line incubated for 72 hrs by sulforhodamine B staining assay. It is filed as functional.
The subject of assay [5] is HeLa S3. The experiment in a line: Cytotoxicity against human HeLa S3 cells assessed as inhibition of cell proliferation incubated for 72 hrs by MTT assay. The assay is classed as functional, cell-based. The settings on record: HeLa S3, 72 h.
For assay [6], the target named is Sarcoplasmic/endoplasmic reticulum calcium ATPase 1 (Oryctolagus cuniculus, UniProt P04191). The experiment in a line: Inhibition of SERCA1a in rabbit Sarcoplasmic reticulum assessed as inhibition constant in presence of [gamma-32P]ATP and calcium ionophore A23187 by coupled enzyme assay. It is filed as subcellular.
Another assay has as its system Ca-Ski. The experiment in a line: Cytotoxicity against human Ca-Ski cells assessed as inhibition of cell growth incubated for 24 hrs by MTT assay. It is filed as functional, cell-based.
In another assay the test system is HeLa. The experiment in a line: Cytotoxicity against human HeLa cells assessed as inhibition of cell growth incubated for 24 hrs by MTT assay. It is filed as functional, cell-based.
In the next assay the test system is A549. The experiment in a line: Cytotoxicity against human A549 cells assessed as cell growth inhibition incubated for 24 hrs by MTT assay. The assay is classed as functional, cell-based. The note with it: A549, 24 h.
For another assay, the system named is KB. The experiment in a line: Cytotoxicity against human KB cells assessed as cell growth inhibition incubated for 24 hrs by MTT assay. It is filed as functional, cell-based.
The subject of assay [7] is MDA-MB-231. Nature of the assay: Cytotoxicity against human MDA-MB-231 cells assessed as cell growth inhibition incubated for 24 hrs by MTT assay. It is filed as functional, cell-based. The note with it: MDA-MB-231, 24 h.
Another assay has as its system Col2. Nature of the assay: Cytotoxicity against human Col2 cells assessed as cell growth inhibition incubated for 24 hrs by MTT assay. The assay is classed as functional, cell-based. The settings on record: Col2, 24 h.
Assay [8] concerns K562. The experiment in a line: Cytotoxicity against human K562 cells assessed as cell growth inhibition incubated for 24 hrs by MTT assay. The assay is classed as functional, cell-based. The note with it: K562, 24 h.
Assay [9] concerns HeLa S3. Nature of the assay: Cytotoxicity against human HeLa S3 cells assessed as cell growth inhibition incubated for 48 hrs by MTT assay. The note with it: HeLa S3, 48 h. The assay is classed as functional, cell-based.
The next assay relates to HEp-2. The experiment in a line: Cytotoxicity against human HEp-2 cells assessed as cell growth inhibition by measuring effective dose. It is filed as functional. The settings on record: read-out: ED50 (the source's name).
Assay [10] deals with MDA-MB-231. The experiment in a line: Inhibition of cell growth in human MDA-MB-231 cells at 6 ug/ml incubated for 96 hrs. The assay is classed as functional.
Assay [11] relates to MCF7. Nature of the assay: Inhibition of cell growth in human MCF7 cells at 6 ug/ml incubated for 96 hrs. It is filed as functional.

These results are taken from ChEMBL document CHEMBL5260828, “Amphiphilic glycoconjugates as potential anti-cancer chemotherapeutics” (Eur J Med Chem, 2018).

Molecules are shown by their SMILES. Converted amounts (≈) assume the structure as drawn.

As a reminder, the IC50 is the concentration that inhibits the measured activity by half. The term CC50 denotes the concentration giving 50% cytotoxicity. The term inhibition denotes the drop in the measured response relative to a control, in per cent. Usually GI50 stands for the concentration at which growth is held to half of that of the control. The term Ki denotes the equilibrium dissociation constant of an inhibitor or competing ligand from its target.

Sarcoplasmic/endoplasmic reticulum calcium ATPase 1, sequence (P04191 whole entry): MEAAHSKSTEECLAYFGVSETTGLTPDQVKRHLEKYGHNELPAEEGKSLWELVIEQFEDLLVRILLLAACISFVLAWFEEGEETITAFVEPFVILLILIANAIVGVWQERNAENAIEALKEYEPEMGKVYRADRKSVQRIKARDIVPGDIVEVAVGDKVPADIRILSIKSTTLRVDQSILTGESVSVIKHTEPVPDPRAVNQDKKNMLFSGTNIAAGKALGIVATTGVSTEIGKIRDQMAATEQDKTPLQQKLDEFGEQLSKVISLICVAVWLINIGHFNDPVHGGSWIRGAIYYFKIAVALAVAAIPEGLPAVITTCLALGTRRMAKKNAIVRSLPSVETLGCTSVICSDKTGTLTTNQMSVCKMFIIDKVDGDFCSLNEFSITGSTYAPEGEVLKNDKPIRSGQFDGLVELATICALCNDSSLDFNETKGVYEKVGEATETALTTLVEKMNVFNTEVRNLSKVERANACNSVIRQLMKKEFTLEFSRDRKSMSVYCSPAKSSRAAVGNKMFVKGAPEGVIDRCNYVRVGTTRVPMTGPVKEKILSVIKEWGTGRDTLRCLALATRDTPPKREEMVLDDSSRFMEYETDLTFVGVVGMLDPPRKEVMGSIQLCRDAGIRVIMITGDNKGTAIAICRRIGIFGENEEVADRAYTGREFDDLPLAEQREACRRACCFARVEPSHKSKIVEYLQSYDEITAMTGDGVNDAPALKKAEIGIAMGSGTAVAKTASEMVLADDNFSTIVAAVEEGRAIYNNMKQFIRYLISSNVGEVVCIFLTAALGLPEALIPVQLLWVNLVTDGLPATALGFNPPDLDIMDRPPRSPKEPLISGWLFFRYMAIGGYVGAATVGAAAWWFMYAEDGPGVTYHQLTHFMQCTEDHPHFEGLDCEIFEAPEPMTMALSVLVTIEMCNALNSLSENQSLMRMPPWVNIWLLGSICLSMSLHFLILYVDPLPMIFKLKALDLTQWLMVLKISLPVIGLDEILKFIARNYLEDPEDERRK

`CCCCCCCCCCN1C[C@@H](O)[C@@H](O)C1`: the IC50 in the assay with K562 [1] stood at 17.7 µM.

Turning to `CCCCCCCCCCCCCCCCOC[C@H](CO[C@@H]1O[C@H](CO)[C@@H](O)[C@H](O)[C@H]1N)OC`, the CC50 with DU-145 was 10 µM; with MIA PaCa-2, 9 µM; with JIMT-1, 9 µM; in the assay on BT-474 it was 8 µM. Further, the IC50 with MCF7 [2] worked out at 4.1 µM.

As to `COC[C@@H](C[C@H]1O[C@@](O)([C@H](O)[C@@H]2C[C@H](OC)[C@@H](O)CC/C=C(C)/C=C/[C@@H](O[C@@H]3O[C@@H](C)[C@H](OC)[C@@H](O)[C@@H]3O)[C@H](C)/C=C(C)/C=C(C)/C=C(/C)C(=O)O2)[C@H](C)[C@@H](O)[C@H]1C)O[C@H]1C[C@](C)(O)[C@@H](O[C@H]2C[C@@H](OC)[C@H](O)[C@@H](C)O2)[C@H](C)O1`, in the assay with NCI-H292, the EC50 is 0.15 µM.

The compound `CCCCOC(=O)CCCCCCC/C=C/CCCCCC[C@H](C)O[C@@H]1O[C@H](COC(C)=O)[C@@H](O)[C@H](O)[C@H]1O[C@@H]1O[C@H](COC(C)=O)[C@@H](O)[C@H](O)[C@H]1O` registered an inhibition at 25 µg/mL with Jurkat of 99.7%.

`CCCCCCCCCCCCCCCCOC[C@H](CO[C@H]1C[C@@H](O)[C@H](O)[C@@H](CO)O1)OC`: the GI50 in the assay with NCI/ADR-RES amounted to 12.8 µM; in the assay with MCF7 [3], 6.93 µM; in the assay with L1210, 7.09 µM; in [4], 11.1 µM.

As to `C/C=C/C/C(C)=C\[C@H]1C[C@H]2C=C[C@H](C[C@H](C)/C=C(\C)[C@@H](OC)C/C=C/[C@@H](O[C@@H]3O[C@H](CO)[C@@H](O)[C@H](OC)[C@H]3O)CC(=O)O1)OO2`, the IC50 with HeLa S3 [5] is greater than 10 µM. Also, the inhibition constant Ki in [6] was 0.018 µM.

`CC(=O)OC[C@H]1O[C@H]2O[C@@H](C)CCCCCC/C=C/CCCCCC(=O)O[C@@H]3[C@@H](O)[C@H](O[C@@H]2[C@@H](O)[C@@H]1O)O[C@H](COC(C)=O)[C@H]3O`: the IC50 worked out at 82.2 µg/mL (≈ 124 µM) with Ca-Ski and 62.9 µg/mL (≈ 95.3 µM) in the assay on HeLa.

As to `CCCCCCCCO[C@@H]1O[C@@H](C)[C@H](OC(=O)CCCCC)[C@@H](O[C@@H]2O[C@@H](C)[C@H](OC(C)=O)[C@@H](O[C@@H]3O[C@@H](C)[C@H](OC(C)=O)[C@@H](O[C@@H]4O[C@@H](C)[C@H](O)[C@@H](O)[C@H]4O)[C@H]3OC(C)=O)[C@H]2OC(C)=O)[C@H]1O`, the half-inhibitory concentration (IC50) with A549, in the assay with KB, with MDA-MB-231 [7], with Col2 and with K562 [8] was 0.7 µM throughout.

Take `C/C=C\C/C=C\C/C=C\C/C=C\C/C=C\CCCC(=O)OCC(CO[C@H]1O[C@H](CS(=O)(=O)O)[C@@H](O)[C@H](O)[C@H]1O)OC(=O)CCCCCCCCCCCCCCC` (stereo not given in full): the IC50 with HeLa S3 [9] stood at 80 µM.

For `CCCCCCCCCCCC(=O)O[C@@H]1[C@@H](O)[C@@H](OC(=O)/C=C/c2ccccc2)[C@H](O[C@@H]2[C@@H](O)[C@@H](OC(=O)[C@@H](C)CC)[C@H](O[C@@H]3[C@@H](O)[C@H]4OC(=O)CCCCCCCCC[C@@H](CCCCC)O[C@@H]5O[C@H](CO)[C@@H](O)[C@H](O)[C@H]5O[C@@H]4O[C@H]3C)O[C@H]2C)O[C@H]1C`, in the assay with HEp-2, the EC50 amounted to 3.5 µg/mL (≈ 2.8 µM).

Consider `CC/C=C\C/C=C\C/C=C\CCCCCCCC(=O)OC[C@@H](CO[C@@H]1O[C@H](CO)[C@H](O)[C@H](O)[C@H]1O)OC(=O)CCCCCCC/C=C\C/C=C\C/C=C\CC`, for which the inhibition at 6 µg/mL in the assay with MDA-MB-231 [10] and with MCF7 [11] was 90% throughout.
